Data reported in US10821079B2, “PKC activators and combinations thereof” (Cognitive Research Enterprises, Inc., priority 2011, dated 2020).

Biological target: T1, PKC-ε (Homo sapiens, UniProt Q02156)
T1 sequence (Q02156 1-737): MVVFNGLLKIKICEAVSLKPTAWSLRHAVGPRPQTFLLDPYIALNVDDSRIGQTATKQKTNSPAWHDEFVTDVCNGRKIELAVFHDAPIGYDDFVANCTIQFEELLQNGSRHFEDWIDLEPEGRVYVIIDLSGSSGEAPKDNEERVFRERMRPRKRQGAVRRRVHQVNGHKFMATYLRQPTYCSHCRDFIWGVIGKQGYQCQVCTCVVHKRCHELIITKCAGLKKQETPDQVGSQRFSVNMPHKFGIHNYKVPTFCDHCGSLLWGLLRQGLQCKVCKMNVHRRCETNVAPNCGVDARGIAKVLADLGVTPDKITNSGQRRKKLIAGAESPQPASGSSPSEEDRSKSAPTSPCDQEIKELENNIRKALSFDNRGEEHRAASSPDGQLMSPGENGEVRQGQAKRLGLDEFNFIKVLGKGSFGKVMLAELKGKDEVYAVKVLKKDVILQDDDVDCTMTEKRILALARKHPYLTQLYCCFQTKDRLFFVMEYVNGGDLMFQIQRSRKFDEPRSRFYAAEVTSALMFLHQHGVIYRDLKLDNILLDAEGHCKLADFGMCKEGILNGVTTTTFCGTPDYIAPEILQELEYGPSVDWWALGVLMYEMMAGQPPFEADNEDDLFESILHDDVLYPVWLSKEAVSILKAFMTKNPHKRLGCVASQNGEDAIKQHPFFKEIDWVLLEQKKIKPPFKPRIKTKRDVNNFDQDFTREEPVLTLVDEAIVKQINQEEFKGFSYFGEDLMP
Assay: Activation of purified PKC isozymes, radiometric: PKC-ε
Assay type: biochemical
Description: To measure PKC, 10 μl of cell homogenate or purified PKC isoform was incubated for 15 min at 37° C. in the presence of 10 μM histones, 4.89 mM CaCl2, 1.2 μg/μl phosphatidyl-L-serine, 0.18 μg/μl 1,2-dioctanoyl-sn-glycerol, 10 mM MgCl2, 20 mM HEPES (pH 7.4), 0.8 mM EDTA, 4 mM EGTA, 4% glycerol, 8 μg/ml aprotinin, 8 μg/ml leupeptin, and 2 mM benzamidine. [γ32P]ATP (0.5 μCi) was added and 32P-phosphoprotein formation was measured by adsorption onto phosphocellulose as described previously. See Nelson et al., J. Neurochemistry, 1995, 65: 2350-2357.
PKC activity of each compound was measured in the absence of diacylglycerol and phosphatidylserine and PKC-δ and PKC-ε were measured in the absence of added EGTA and CaCl2, as described by Kanno et al., J. Lipid Res., 2006, 47: 1146-1156. Low concentrations of Ca^2+ were needed because high Ca^2+ can interact with the PKC phosphatidylserine binding site and prevents activation. […] To determine their PKC isoform specificity, the compounds were pre-incubated with purified isoforms of PKC for five minutes and the PKC activity was measured radiometrically.
The activation and PKC isozyme specificity of DCPLA-ethyl ester was measured following the procedures in Example 1(B) and (C), except that 9 ng of the purified isozyme was used and it was pre-incubated for 5 minutes at room temperature (FIG. 3). PKC-ε activation by DCPLA-tert-butyl ester and DCPLA-retinyl ester was measured in the same manner as DCPLA-ethyl ester (FIG. 3).
The EC50 values, PKC specificity, and activation for a select number of DCPLA esters was determined (see Table 1). EC50 values were determined by measuring the lowest concentration that activates by 50% of maximum activation. […] The specificity and activation of PKC by the various esters of DCPLA were calculated from the measurements of activation of PKC isozymes.

Row | PKC-ε activation at peak | concentration range activating PKC-ε by more than 50% [µM] | Specificity ε/α (Activation of PKC-ε ÷ activation or inhibition of PKCα at 3 × EC50) | PKC-ε activation (in words) | SMILES
1 | up to 190 % of control | 0.01 to 10 | 12.1 | – | CCCCCC1CC1CC1CC1CCCCCCCC(=O)OC (stereo not shown) [DCPLA-ME, methyl 8-(2-((2-pentylcyclopropyl)methyl)cyclopropyl)octanoate]
2 | – | – | – | not activated | CC1=C(/C=C/C(C)=C/C=C/C(C)=C/C(=O)O)C(C)(C)CCC1 [RA, All-trans retinoic acid]
